In patent US20010047099A1, “4-aminopicolinates and their use as herbicides” (priority 2000, published 2001):

How the values were obtained:
[1] = system: chickweed (Stellaria media); assay: Postemergence herbicidal activity; format: in vivo; settings: for pest or weed control at 125 ppm / pest or weed control at 250 ppm: Stellaria media, post-emergence, 336 h, Table 1, visual, after 2 weeks, read-out: Post-emergent % Control STEME; for pest or weed control at 125 ppm: rate 125 ppm; for Post-emergent Evaluation - % control STEME: Table 5
Summary of the method: (§1)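 Plants are raised from seed under greenhouse conditions until the first or second true leaf appears. They are then sprayed with test solutions at known concentrations, where 1 ppm corresponds to roughly 1 g/Ha. Two weeks later, injury is rated by eye from 0 to 100%.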

[2] = system: wild buckwheat (Polygonum convolvulus); assay: Postemergence herbicidal activity; format: in vivo; settings: for pest or weed control at 125 ppm / pest or weed control at 250 ppm: Fallopia convolvulus, post-emergence, 336 h, Table 1, visual, after 2 weeks, read-out: Post-emergent % Control POLCO; for pest or weed control at 125 ppm: rate 125 ppm; for Post-emergent Evaluation - % control POLCO: Table 5
Summary of the method: as §1

[3] = system: cocklebur (Xanthium strumarium); assay: Postemergence herbicidal activity; format: in vivo; settings: Xanthium strumarium, post-emergence, 336 h, Table 1, visual, after 2 weeks, read-out: Post-emergent % Control XANST; for pest or weed control at 125 ppm: rate 125 ppm; for pest or weed control at 250 ppm: rate 250 ppm
Summary of the method: as §1

[4] = system: pigweed (Amaranthus retroflexus); assay: Preemergence herbicidal activity; format: in vivo; settings: Amaranthus retroflexus, 504 h, Table 6 (headed Post-emergent; text: preemergence), after 3 weeks, read-out: % Control AMARE; for pest or weed control at 280 ppm: rate 280 ppm; for pest or weed control at 560 ppm: rate 560 ppm
Summary of the method: (§2)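 Visual injury score, 0-100 percent (0 = no injury, 100 = complete kill or no germination), taken 3 weeks after treatment relative to untreated plants. Test solutions in water/Tween 155 with acetone/DMSO carrier were sprayed onto the soil of freshly seeded pots. Greenhouse, 15 hr light.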

[5] = system: velvetleaf (Abutilon theophrasti); assay: Preemergence herbicidal activity; format: in vivo; settings: Abutilon theophrasti, 504 h, Table 6 (headed Post-emergent; text: preemergence), after 3 weeks, read-out: % Control ABUTH; for pest or weed control at 280 ppm: rate 280 ppm; for pest or weed control at 560 ppm: rate 560 ppm
Summary of the method: as §2

[6] = system: morningglory (Ipomoea hederacea); assay: Preemergence herbicidal activity; format: in vivo; settings: Ipomoea, 504 h, Table 6 (headed Post-emergent; text: preemergence), after 3 weeks, read-out: % Control IPOHE; for pest or weed control at 280 ppm: rate 280 ppm; for pest or weed control at 560 ppm: rate 560 ppm
Summary of the method: as §2

[7] = system: Canada thistle (Cirsium arvense); assay: Range & Pasture Crop Testing (postemergence track sprayer); format: in vivo; settings: for GR80 CIRAR: Table 10, clover pasture, postemergence
Protocol: (§3) By applying the well-accepted probit analysis as described by J. Berkson in Journal of the […], 48, 565 (1953) and by D. Finney in “Probit Analysis” Cambridge University Press (1952), the above data can be used to calculate GR50 and GR80 values, which are defined as growth reduction factors that correspond to the effective dose of herbicide required to kill or control 50 percent or 80 percent, respectively, of a target plant.
(§4) Rates are calculated based upon 5 doses being applied. The high rate (X), followed by serial dilutions of 1/2×, 1/4×, 1/8× and 1/16×. Compound requirements are based upon the 187 L/ha carrier volume, specifications of the delivery system (Mandel track sprayer) and generating 24 mL of technical spray material to allow for the dilutions and overage in the sprayer. [formula]
(§5) All technical materials were formulated in 97:3 (acetone:DMSO) with 0.25% X-77. The total volume of solvent is maintained at less than 7%. An overhead Mandel track sprayer calibrated to deliver 187 L/ha was used for all treatment applications (postemergence). Picloram was included as a comparison treatment.
(§6) Solutions were applied with a mechanized track-sprayer at the following settings:
(§7) Spray height: 17 inches above top of plants
(§8) This provides an application volume of 187 L/ha.
(§9) Percent weed control (burn down) was evaluated 3 weeks after treatment. Visual control on a 0-100 linear scale was used, with 0 representing no control and 100 representing total control. Burn down ratings were taken for annual and perennial weed species.

[8] = system: field bindweed (Convolvulus arvensis); assay: as above; format: in vivo; settings: Table 10; clover pasture; postemergence
Protocol: as §3, §4, §5, §6, §7, §8, §9

[9] = system: White Clover (Trifolium repens); assay: as above; format: in vivo; settings: Table 10
Protocol: as §3, §4, §5, §6, §7, §8, §9

[10] = system: broadleaf dock (Rumex obtusifolia); assay: Range & Pasture Crop Testing (postemergence track sprayer); format: in vivo; settings: Table 9; rate 70 g/Ha; 3 weeks after treatment
Protocol: as §4, §5, §6, §7, §8, §9

[11] = system: crested wheatgrass (Agropyron cristatum) (grass crop); assay: as above; format: in vivo; settings: Table 9, rate 70 g/Ha, 3 weeks after treatment
Protocol: as §4, §5, §6, §7, §8, §9

[12] = system: lambsquarters (Chenopodium album); assay: Postemergence herbicidal activity; format: in vivo; settings: Table 5
Summary of the method: as §1

[13] = system: wheat (Triticum aestivum); assay: Postemergence herbicidal activity, selectivity to wheat; format: in vivo; settings: Table 5, crop (wheat)
Protocol: Seeds of the desired test plant species were planted in Grace-Sierra MetroMix® 306 planting mixture, which typically has a pH of 6.0 to 6.8 and an organic matter content of about 30 percent, in plastic pots with a surface area of 64 square centimeters. When required to ensure good germination and healthy plants, a fungicide treatment and/or other chemical or physical treatment was applied. The plants were grown for 7-21 days in a greenhouse with an approximate 15 hr photoperiod which was maintained at about 23-29° C. during the day and 22-28° C. during the night. Nutrients and water were added on a regular basis and supplemental lighting was provided with overhead metal halide 1000-Watt lamps as necessary. The plants were employed for testing when they reached the first or second true leaf stage.
A weighed amount, determined by the highest rate to be tested, of each test compound was placed in a 20 mL glass vial and was dissolved in 4 mL of a 97:3 v/v (volume/volume) mixture of acetone and dimethyl sulfoxide (DMSO) to obtain concentrated stock solutions. […] The concentrated stock solutions obtained were diluted with an aqueous mixture containing acetone, water, isopropyl alcohol, DMSO, Atplus 411F crop oil concentrate, and Triton X-155 surfactant in a 48.5:39:10:1.5:1.0:0.02 v/v ratio to obtain spray solutions of known concentration. The solutions containing the highest concentration to be tested were prepared by diluting 2 mL aliquots of the stock solution with 13 mL of the mixture and lower concentrations were prepared by serial dilution of the stock solution. Approximately 1.5 mL aliquots of each solution of known concentration were sprayed evenly onto each of the test plant pots using a DeVilbiss atomizer driven by compressed air pressure of 2 to 4 psi ([…]) to obtain thorough coverage of each plant. Control plants were sprayed in the same manner with the aqueous mixture. In this test an application rate of 1 ppm results in the application of approximately 1 g/Ha.
The treated plants and control plants were placed in a greenhouse as described above and watered by sub-irrigation to prevent wash-off of the test compounds. After 2 weeks the condition of the test plants as compared with that of the untreated plants was determined visually and scored on a scale of 0 to 100 percent where 0 corresponds to no injury and 100 corresponds to complete kill.

## CCCOC(=O)c1nc(Cl)cc(N)c1Cl [Compound 5, n-propyl 4-amino-3,6-dichloropyridine-2-carboxylate]
[1]
  pest or weed control at 125 ppm: 100%
[2]
  pest or weed control at 125 ppm: 100%
[3]
  pest or weed control at 125 ppm: 100%
[4]
  pest or weed control at 280 ppm: 100%
[5]
  pest or weed control at 280 ppm: 100%
[6]
  pest or weed control at 280 ppm: 100%
[7]
  GR80 CIRAR: <17.5 g/ha
[8]
  GR80 CONAR: 140.1 g/ha
[9]
  GR20 TRFRE: <17.5 g/ha
other
  melting point: 94 to 95 °C

## CCCCOC(=O)c1nc(Cl)cc(N)c1Cl [Compound 7, n-butyl 4-amino-3,6-dichloropyridine-2-carboxylate]
[1]; rate 250 ppm
  pest or weed control at 250 ppm: 100%
[2]; rate 250 ppm
  pest or weed control at 250 ppm: 100%
[3]
  pest or weed control at 250 ppm: 100%
[4]
  pest or weed control at 280 ppm: 100%
[5]
  pest or weed control at 280 ppm: 100%
[6]
  pest or weed control at 280 ppm: 100%
[7]
  GR80 CIRAR: 17.3 g/ha
[8]
  GR80 CONAR: 116.6 g/ha
[9]
  GR20 TRFRE: 15.3 g/ha
other
  melting point: 78 to 79 °C

## CCCCCCOC(=O)c1nc(Cl)cc(N)c1Cl [Compound 9, n-hexyl 4-amino-3,6-dichloropyridine-2-carboxylate]
[1]; rate 250 ppm
  pest or weed control at 250 ppm: 100%
[2]; rate 250 ppm
  pest or weed control at 250 ppm: 100%
[3]
  pest or weed control at 250 ppm: 100%
[4]
  pest or weed control at 280 ppm: 98%
[5]
  pest or weed control at 280 ppm: 100%
[6]
  pest or weed control at 280 ppm: 100%
[7]
  GR80 CIRAR: 20.7 g/ha
[8]
  GR80 CONAR: 66 g/ha
[9]
  GR20 TRFRE: 20.7 g/ha
other
  melting point: 65 to 66 °C

## CNc1cc(Cl)nc(C(=O)O)c1Cl [Compound 26, 4-N-Methylamino-3,6-dichloropyridine-2-carboxylic acid]
[1]
  pest or weed control at 125 ppm: 90%
[2]
  pest or weed control at 125 ppm: 95%
[3]
  pest or weed control at 125 ppm: 90%
[10]
  Post-emergent Evaluation - % control RUMOB: 100%
[11]
  Post-emergent Evaluation - % control AGRCR: 10%
[4]
  pest or weed control at 560 ppm: 100%
[5]
  pest or weed control at 560 ppm: 100%
[6]
  pest or weed control at 560 ppm: 100%
[7]; Table 9, rate 70 g/Ha, 3 weeks after treatment
  Post-emergent Evaluation - % control CIRAR: 90%
other
  melting point: 170 to 172 °C

## COc1c(N)cc(Br)nc1C(=O)O [Compound 41, 4-Amino-6-bromo-3-methoxypyridine-2-carboxylic acid]
[1]
  pest or weed control at 125 ppm: 90%
[1]; rate 250 ppm
  Post-emergent Evaluation - % control STEME: 20%
[2]
  pest or weed control at 125 ppm: 100%
[2]; rate 250 ppm
  Post-emergent Evaluation - % control POLCO: 100%
[3]
  pest or weed control at 125 ppm: 80%
[12]; rate 250 ppm
  Post-emergent Evaluation - % control CHEAL: 90%
[4]
  pest or weed control at 280 ppm: 40%
[5]
  pest or weed control at 280 ppm: 90%
[6]
  pest or weed control at 280 ppm: 85%
[13]; rate 250 ppm
  Post-emergent Evaluation - % control TRZAS: 10%

## Nc1cc(C(F)(F)F)nc(C(=O)O)c1Cl [Compound 46, 4-Amino-3-chloro-6-trifluoromethylpyridine-2-carboxylic acid]
[1]; rate 250 ppm
  pest or weed control at 250 ppm: 60%
[1]; rate 31 ppm
  Post-emergent Evaluation - % control STEME: 50%
[2]; rate 250 ppm
  pest or weed control at 250 ppm: 100%
[2]; rate 31 ppm
  Post-emergent Evaluation - % control POLCO: 100%
[3]
  pest or weed control at 250 ppm: 90%
[12]; rate 31 ppm
  Post-emergent Evaluation - % control CHEAL: 100%
[4]; rate 140 ppm
  pest or weed control at 140 ppm: 95%
[5]; rate 140 ppm
  pest or weed control at 140 ppm: 95%
[6]; rate 140 ppm
  pest or weed control at 140 ppm: 100%
other
  melting point: 131 to 133 °C
[13]; rate 31 ppm
  Post-emergent Evaluation - % control TRZAS: 10%

## Nc1c(Cl)c(Oc2ccccc2)nc(C(=O)O)c1Cl [Compound 54, 4-Amino-3,5-dichloro-6-phenoxypyridine-2-carboxylic acid]
[1]; rate 250 ppm
  pest or weed control at 250 ppm: 0%
[2]; rate 250 ppm
  pest or weed control at 250 ppm: 40%
[3]
  pest or weed control at 250 ppm: 100%
[4]
  pest or weed control at 280 ppm: 10%
[5]
  pest or weed control at 280 ppm: 50%
[6]
  pest or weed control at 280 ppm: 41%
other
  melting point: 158 to 160 °C

## CC(C)COc1nc(C(=O)O)c(Cl)c(N)c1Cl [Compound 56, 4-Amino-3,5-dichloro-6-(2-methylpropoxy)pyridine-2-carboxylic acid]
[1]; rate 250 ppm
  pest or weed control at 250 ppm: 30%
[2]; rate 250 ppm
  pest or weed control at 250 ppm: 20%
[3]
  pest or weed control at 250 ppm: 85%
[4]
  pest or weed control at 560 ppm: 0%
[5]
  pest or weed control at 560 ppm: 40%
[6]
  pest or weed control at 560 ppm: 0%
other
  melting point: 104 to 106 °C
